In US11091497B2, “Pyrano[3,4-b]pyrazine kappa opioid receptor ligands for treating addiction, pruritus, pain, and inflammation” (The Rockefeller University, priority 2017, dated 2021):

Tests used:
mice = test: Rotarod incoordination in mice; type: in vivo; settings: intraperitoneal
From the text: In the case of rotarod incoordination, kappa agonist effects in this assay reflect kappa-opioid receptor arrestin mediated signaling. This assay is thought to be a sensitive measure of the sedative properties of kappa opioid receptor agonists. Generally, a compound which has reduced efficacy in the coupling of arrestin with the kappa opioid receptor is thought to have a lowered potential for the sedative side effects of kappa opioid receptor ligands. Rotarod assays in vivo are employed to confirm this possibility.
Rotarod experiments were conducted with mice using a dedicated rodent rotarod apparatus, with up to five animals tested concurrently (IITC Life Science, Woodland Hills, Calif., USA). Rotarod rotation rate begins at 3 rotations per minute, and ramps to 30 rotations per minute over the course of 300 s, at which time the assay is terminated and animals removed to their home cage. Animals were acclimated to the rotarod on at least two occasions prior to the day of the test. On the day of the test, baseline times for each animal to fall off the rotarod were recorded. Mice were then injected intraperitoneally with vehicle or compound, and rotarod measurements conducted, beginning 0-2 minutes after injection, and then subsequently at select time points thereafter.

[1] = molecular target: T1, kappa opioid receptor (PathHunter U2OS hOPRK1 β-arrestin cell line) (Homo sapiens, UniProt P41145); test: β-arrestin coupling (PathHunter Detection Kit); type: cell-based; settings: for Emax at 10 µM: U2OS, read-out: β-arrestin coupling % efficacy
T1 construct: host or cells: U2OS (PathHunter U2OS hOPRK1 β-arrestin cell line)

[2] = molecular target: T2, kappa opioid receptor (PathHunter U2OS hOPRK1 membranes) (Homo sapiens, UniProt P41145); test: Tritiated U69,593 binding for KOP-R membranes
T2 construct: host or cells: U2OS (PathHunter U2OS hOPRK1 β-arrestin cell line)
T2 sequence (P41145 whole entry): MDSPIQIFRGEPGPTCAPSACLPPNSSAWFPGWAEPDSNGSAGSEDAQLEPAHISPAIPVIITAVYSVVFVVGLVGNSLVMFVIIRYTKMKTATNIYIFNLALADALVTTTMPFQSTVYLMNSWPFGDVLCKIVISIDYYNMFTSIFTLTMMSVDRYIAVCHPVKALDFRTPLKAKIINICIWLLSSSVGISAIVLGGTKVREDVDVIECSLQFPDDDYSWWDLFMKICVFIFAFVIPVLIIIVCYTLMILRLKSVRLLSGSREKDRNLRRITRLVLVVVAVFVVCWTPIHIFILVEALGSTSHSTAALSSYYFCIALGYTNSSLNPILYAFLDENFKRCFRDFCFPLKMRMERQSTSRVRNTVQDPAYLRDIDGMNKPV

T1 sequence (P41145 whole entry): as above

| SMILES | rotarod incoordination (mice; 10 mg/kg) | rotarod incoordination (mice; 30 mg/kg) | rotarod incoordination (mice; 90 mg/kg) | EC50 [1] | Emax at 10 µM [1] | IC50 [2] |
| --- | --- | --- | --- | --- | --- | --- |
| O=C(Cc1ccc(Cl)c(Cl)c1)N1CCN[C@@H]2COC[C@H](N3CCCC3)[C@H]21 (racemic) [Example 5A22, 1-[8-pyrrolidin-1-yl-2,3,4,4a,5,7,8,8a-octahydropyrano(3,4-b)pyrazin-1-yl]-2-(3,4-dichlorophenyl)ethanone] | no significant incoordination | significant incoordination | significant incoordination | 1130 nM | 67% | 65 nM |
| CN1CCN(C(=O)Cc2ccc(Cl)c(Cl)c2)[C@H]2[C@H]1COC[C@@H]2N1CCCC1 (racemic) [Example 5A23, 1-[4-methyl-8-pyrrolidin-1-yl-3,4a,5,7,8,8a-hexahydro-2H- -pyrano(3,4-b)pyrazin-1-yl]-2-(3,4-dichlorophenyl)ethanone] | no significant incoordination | statistically significant incoordination | statistically significant incoordination | 5540 nM | 44% | 103 nM |
